According to publication PMC10845954, “Novel antimicrobial peptides identified in legume plant, Medicago truncatula” (Microbiology Spectrum, 2024):
Where a SMILES comes first, the peptide text is derived from it.

System: leukemia (K562) cell line
Experiment: Cell viability (MTT assay)
Type: cell-based, human
Conditions: 100 µM, 24 hrs exposure, absorbance 540 nm, cutoff 20%, mean of four independent experiments
Method: Dulbecco’s modified Eagle medium (DMEM) supplemented with 10% fetal bovine serum (FBS) and 1% penicillin (10.000 IU/mL)/streptomycin (50 mg/mL) was used to grow the […] human leukemia cell line (K562) in flasks at 37°C in a humidified environment of 5% CO2/air.
K562 cells were cultivated in DMEM with FBS 10% and penicillin–streptomycin 1%, and they were incubated at 37°C with 5% CO2 present. Using the MTT assay, the cytotoxicity of the three NCRs was evaluated. K562 cells were grown at a density of 3–4 × 10^4 cells per well in a 96-well plate and allowed to adhere for 24 hrs. […] Using a microplate reader, absorbance was measured at 540 nm. […]
Fig 7 The toxicity % of the NCRs (NCR094 and NCR992) toward leukemia cell line (K562). […] Absorbance was read at 540, and the toxicity% was calculated from four independent experiments, and the results were represented as average of the % toxicity and standard deviations from four independent experiments. […]
The cells were treated with were treated with 10-fold concentration (100, 10, 1, 0 μM) of NCR992.1 After 24 hrs exposure, MTT were added, and cells were incubated for 4 hrs. […] Absorbance was read at 540 and the toxicity% were calculated and the results were presented as means and error bars were ± SD values from four independent experiments.

CC[C@H](C)[C@H](NC(=O)[C@H](CCSC)NC(=O)CNC(=O)[C@H](Cc1ccccc1)NC(=O)[C@H](CCC(=O)O)NC(=O)[C@H](CS)NC(=O)[C@@H](N)CCSC)C(=O)N[C@@H](CCCNC(=N)N)C(=O)N[C@@H](CCCNC(=N)N)C(=O)N[C@@H](CS)C(=O)N[C@H](C(=O)N[C@@H](CO)C(=O)N[C@@H](Cc1ccc(O)cc1)C(=O)N[C@@H](CCCCN)C(=O)N[C@@H](CS)C(=O)N[C@@H](CCC(N)=O)C(=O)N[C@@H](CS)C(=O)N[C@@H](Cc1c[nH]cn1)C(=O)N[C@@H](CCC(=O)O)C(=O)N[C@@H](C)C(=O)N[C@@H](Cc1ccc(O)cc1)C(=O)O)[C@@H](C)CC [NCR992] (H-MCEFGMIRRCISYKCQCHEAY-OH; N-terminus and C-terminus assumed)
toxicity % toward K562: 8.54%
